Measured values taken from PubChem BioAssay AID192 (DTP/NCI, 2004).
Where “and” joins values, the source holds several entries; their conditions need not be identical. Equal entries are not always repeated. Toxic doses and inconclusive results are not listed.

Tested on: BDF1 mice, B16 melanoma ip, median survival T/C
Assay: NCI In Vivo Anticancer Drug Screen. Data for tumor model B16 Melanoma (intraperitoneal) in B6D2F1 (BDF1) mice
Settings: endpoint: median survival time, higher = longer survival
In short: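 Vehicle-treated animals serve as the reference (C); treated animals (T) are scored for survival or tumor size after tumor transplantation.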

[1] = dose: 25.0 mg/kg/injection, schedule: Q01DX009 (ip), vehicle: suspension in saline
[2] = dose: 50.0 mg/kg/injection, schedule: Q01DX009 (ip), vehicle: saline with Tween-80
[3] = dose: 100.0 mg/kg/injection, schedule: Q01DX009 (ip), vehicle: saline with Tween-80
[4] = dose: 200.0 mg/kg/injection, schedule: Q01DX009 (ip), vehicle: saline with Tween-80
[5] = dose: 12.5 mg/kg/injection, schedule: Q01DX009 (ip), vehicle: Klucel (hydroxypropylcellulose) (HPC)
[6] = dose: 25.0 mg/kg/injection, schedule: Q01DX009 (ip), vehicle: Klucel (hydroxypropylcellulose) (HPC)
[7] = dose: 50.0 mg/kg/injection, schedule: Q01DX009 (ip), vehicle: Klucel (hydroxypropylcellulose) (HPC)
[8] = dose: 3.13 mg/kg/injection, schedule: Q01DX009 (ip), vehicle: saline with Tween-80
[9] = dose: 6.25 mg/kg/injection, schedule: Q01DX009 (ip), vehicle: saline with Tween-80
[10] = dose: 25.0 mg/kg/injection, schedule: Q01DX009 (ip), vehicle: saline with Tween-80
[11] = dose: 12.5 mg/kg/injection, schedule: Q01DX009 (ip), vehicle: saline with Tween-80

With COc1cc(NC(N)=O)ccc1Nc1c2ccc(N)cc2nc2cc(N)ccc12 the T/C (dose: 0.5 mg/kg/injection, schedule: Q01DX009 (ip), vehicle: saline) was 104 % of control, the T/C (dose: 1.0 mg/kg/injection, schedule: Q01DX009 (ip), vehicle: saline) was 102 % of control and the T/C (dose: 2.0 mg/kg/injection, schedule: Q01DX009 (ip), vehicle: saline) was 108 % of control. The T/C (dose: 4.0 mg/kg/injection, schedule: Q01DX009 (ip), vehicle: saline) was 102 % of control, the T/C (dose: 8.0 mg/kg/injection, schedule: Q01DX009 (ip), vehicle: saline) was 102 % of control and the T/C (dose: 16.0 mg/kg/injection, schedule: Q01DX009 (ip), vehicle: saline) was 104 % of control.

For Oc1ccc(/C=N/Nc2nnc(N/N=C/c3ccc(O)cc3O)c3ccccc23)c(O)c1, the T/C (dose: 3.13 mg/kg/injection, schedule: Q01DX009 (ip), vehicle: suspension in saline) was 101 % of control, the T/C (dose: 6.25 mg/kg/injection, schedule: Q01DX009 (ip), vehicle: suspension in saline) was 98 % of control and the T/C (dose: 12.5 mg/kg/injection, schedule: Q01DX009 (ip), vehicle: suspension in saline) was 89 % of control. For the same compound, the T/C [1] was 90 % of control.

Cc1cc(C)c([I+]c2c(C)cc(C)cc2C)c(C)c1 was tested, and the T/C (dose: 1.5 mg/kg/injection, schedule: Q01DX009 (ip), vehicle: suspension in saline) was 103 % of control, the T/C (dose: 3.0 mg/kg/injection, schedule: Q01DX009 (ip), vehicle: Klucel (hydroxypropylcellulose) (HPC)) was 91 % of control and the T/C (dose: 3.0 mg/kg/injection, schedule: Q01DX009 (ip), vehicle: suspension in saline) was 95 % of control. The T/C (dose: 6.0 mg/kg/injection, schedule: Q01DX009 (ip), vehicle: Klucel (hydroxypropylcellulose) (HPC)) was 91 % of control and the T/C (dose: 6.0 mg/kg/injection, schedule: Q01DX009 (ip), vehicle: suspension in saline) was 100 % of control.

COC(=O)c1cc(C)ccc1O was tested, and the T/C [2] was 108 % of control, the T/C [3] was 97 % of control and the T/C [4] was 105 % of control.

With COC(=O)[C@@H]1c2cc3c(c(O)c2[C@@H](OC2OC(C)C(OC)C(C)(OC)C2OC)C[C@]1(C)O)C(=O)c1c(O)cc2c(c1C3=O)O[C@H]1O[C@]2(C)[C@H](O)[C@@H](N(C)C)[C@@H]1O (stereo partly specified) the T/C (dose: 250.0 micrograms/kg/injection, schedule: Q01DX009 (ip), vehicle: other) was 171 % of control, the T/C (dose: 500.0 micrograms/kg/injection, schedule: Q01DX009 (ip), vehicle: other) was 171 % of control and the T/C (dose: 648.0 micrograms/kg/injection, schedule: Q04DX003 (ip), vehicle: lactic acid) was 100 % of control. For the same compound, the T/C (dose: 1080.0 micrograms/kg/injection, schedule: Q04DX003 (ip), vehicle: lactic acid) was 107 % of control and 121 % of control and the T/C (dose: 1800.0 micrograms/kg/injection, schedule: Q04DX003 (ip), vehicle: lactic acid) was 110 % of control.

For CC/C(=C(\c1ccccc1)c1ccc(OCCN(C)C)cc1)c1ccccc1, the T/C [1] was 97 % of control, the T/C (dose: 50.0 mg/kg/injection, schedule: Q01DX009 (ip), vehicle: suspension in saline) was 93 % of control and the T/C (dose: 100.0 mg/kg/injection, schedule: Q01DX009 (ip), vehicle: suspension in saline) was 91 % of control. The T/C (dose: 200.0 mg/kg/injection, schedule: Q01DX009 (ip), vehicle: suspension in saline) was 86 % of control.

CCOC(=O)C(C(=O)OCC)c1cc(NC(=O)c2ccccc2)ccc1NC(=O)c1ccccc1 was tested, and the T/C [3] was 95 % of control, the T/C [4] was 91 % of control and the T/C (dose: 400.0 mg/kg/injection, schedule: Q01DX009 (ip), vehicle: saline with Tween-80) was 89 % of control.

CC/C(=C/C(F)(F)C(F)(F)C(F)(F)F)[N+](=O)[O-] was tested, and the T/C [5] was 101 % of control, the T/C [6] was 87 % of control and the T/C [7] was 87 % of control.

O=C(NN=C1CCCCC1)c1ccccc1 was tested, and the T/C (dose: 18.75 mg/kg/injection, schedule: Q01DX009 (ip), vehicle: saline with Tween-80) was 97 % of control, the T/C (dose: 37.5 mg/kg/injection, schedule: Q01DX009 (ip), vehicle: saline with Tween-80) was 100 % of control and the T/C (dose: 75.0 mg/kg/injection, schedule: Q01DX009 (ip), vehicle: saline with Tween-80) was 105 % of control and 107 % of control.

For c1ccc2c(c1)Cc1cc3ccccc3nc1-2, the T/C (dose: 100.0 mg/kg/injection, schedule: Q04DX003 (ip), vehicle: Klucel (hydroxypropylcellulose) (HPC)) was 102 % of control, the T/C (dose: 200.0 mg/kg/injection, schedule: Q04DX003 (ip), vehicle: Klucel (hydroxypropylcellulose) (HPC)) was 114 % of control and the T/C (dose: 400.0 mg/kg/injection, schedule: Q04DX003 (ip), vehicle: Klucel (hydroxypropylcellulose) (HPC)) was 98 % of control.

For c1ccc([I+]c2ccccc2)cc1, the T/C (dose: 1.0 mg/kg/injection, schedule: Q01DX009 (ip), vehicle: saline + Tween-80 + alcohol) was 103 % of control, the T/C (dose: 2.0 mg/kg/injection, schedule: Q01DX009 (ip), vehicle: saline + Tween-80 + alcohol) was 97 % of control and the T/C (dose: 4.0 mg/kg/injection, schedule: Q01DX009 (ip), vehicle: saline + Tween-80 + alcohol) was 108 % of control. The T/C (dose: 6.0 mg/kg/injection, schedule: Q01DX009 (sc), vehicle: olive oil, sesame oil, peanut oil) was 100 % of control.

With C=CCNc1ccc(C)cc1 the T/C [5] was 105 % of control, the T/C [6] was 96 % of control and the T/C [7] was 88 % of control. The T/C (dose: 100.0 mg/kg/injection, schedule: Q01DX009 (ip), vehicle: Klucel (hydroxypropylcellulose) (HPC)) was 91 % of control.

CCCCCCCCCCCCCCCC(=O)N(C/C=C/CN(CCCN(C)C)C(=O)CCCCCCCCCCCCCCC)CCCN(C)C was tested, and the T/C (dose: 0.78 mg/kg/injection, schedule: Q01DX009 (ip), vehicle: saline with Tween-80) was 86 % of control, the T/C (dose: 1.56 mg/kg/injection, schedule: Q01DX009 (ip), vehicle: saline) was 90 % of control and the T/C (dose: 1.6 mg/kg/injection, schedule: Q01DX009 (ip), vehicle: saline with Tween-80) was 104 % of control. The T/C [8] was 97 % of control, the T/C (dose: 3.2 mg/kg/injection, schedule: Q01DX009 (ip), vehicle: saline with Tween-80) was 95 % of control and the T/C [9] was 95 % of control. The T/C (dose: 6.3 mg/kg/injection, schedule: Q01DX009 (ip), vehicle: saline with Tween-80) was 91 % of control, the T/C (dose: 12.5 mg/kg/injection, schedule: Q04DX003 (ip), vehicle: saline with Tween-80) was 177 % of control and the T/C [10] was 158 % of control. The T/C (dose: 25.0 mg/kg/injection, schedule: Q04DX003 (ip), vehicle: saline with Tween-80) was 163 % of control and the T/C (dose: 50.0 mg/kg/injection, schedule: Q04DX003 (ip), vehicle: saline with Tween-80) was 155 % of control.

COC(=O)C1=C(C)NC(=O)NC1c1ccc(N(CCCl)CCCl)c(OC)c1 (stereo unspecified) was tested, and the T/C (dose: 1.56 mg/kg/injection, schedule: Q01DX009 (ip), vehicle: Klucel (hydroxypropylcellulose) (HPC)) was 154 % of control, the T/C (dose: 3.12 mg/kg/injection, schedule: Q01DX009 (ip), vehicle: Klucel (hydroxypropylcellulose) (HPC)) was 178 % of control and the T/C [8] was 176 % of control. The T/C [9] was 189 % of control.

With Nc1ccc(Cl)cc1N the T/C [11] was 104 % of control, the T/C [10] was 105 % of control and the T/C [2] was 102 % of control. For the same compound, the T/C [3] was 99 % of control.

For Nc1ccc2c(c1)CN1C(=O)c3ccccc3C1=N2, the T/C [11] was 101 % of control, the T/C [10] was 103 % of control and the T/C [2] was 111 % of control.

In the case of N=C(N)c1ccc(/C=C/c2ccc(C(=N)N)cc2O)cc1, the T/C (dose: 3.12 mg/kg/injection, schedule: Q01DX009 (ip), vehicle: water) is reported as 105 % of control and 107 % of control, the T/C (dose: 6.25 mg/kg/injection, schedule: Q01DX009 (ip), vehicle: water) is reported as 88 % of control and 101 % of control and the T/C (dose: 12.5 mg/kg/injection, schedule: Q01DX009 (ip), vehicle: water) is reported as 101 % of control and 107 % of control. For the same compound, the T/C (dose: 25.0 mg/kg/injection, schedule: Q01DX009 (ip), vehicle: water) was 97 % of control and 114 % of control and the T/C (dose: 50.0 mg/kg/injection, schedule: Q01DX009 (ip), vehicle: water) was 93 % of control and 104 % of control.

For CCCCCCCCCCCCCCCCCC(=O)[O][Hg][c]1ccccc1, the T/C [9] was 97 % of control and the T/C [11] was 105 % of control.
